From US8748415B2 (priority 2011, dated 2014)

System: recombinant NL4-3 virus (Renilla luciferase in nef, Gag P373S)
Assay: HIV cell culture assay (luciferase activity in MT-2 cells infected with NLRluc recombinant virus)
Format: cell-based
Conditions: NL43, MT-2 cells infected 4-5 days with NLRluc recombinant virus, class symbol
Summary of the method: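 MT-2 cells in RPMI/10% FBS were infected with recombinant NL4-3 (NLRluc), produced by 293T transfection and titered in MT-2 by luciferase. Serial inhibitor dilutions were present throughout a 4–5 day infection. Antiviral activity was quantified as Renilla luciferase signal via a modified Dual Luciferase read.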

SMILES	EC50 [nM]
C=C(C)[C@@H]1CC[C@]2(CNCCCN3CCS(=O)(=O)CC3)CC[C@]3(C)[C@H](CC[C@@H]4[C@@]5(C)CC=C(c6ccc(C(=O)O)cc6)C(C)(C)[C@@H]5CC[C@]43C)[C@@H]12 [Example 14, 4-((1R,3aS,5aR,5bR,7aR,11aS,11bR,13aR,13bR)-5a,5b,8,8,11a-pentamethyl-1-(prop-1-en-2-yl)-3a-((3-(1-dioxo-thiomorpholino)propylamino)methyl)-2,3,3a,4,5,5a,5b,6,7,7a,8,11,11a,11b,12,13,13a,13b-octadecahydro-1H-cyclopenta[a]chrysen-9-yl)benzoic acid]	< 100
C=C(C)[C@@H]1CC[C@]2(CNCCCN3CCNC(=O)C3)CC[C@]3(C)[C@H](CC[C@@H]4[C@@]5(C)CC=C(c6ccc(C(=O)O)cc6)C(C)(C)[C@@H]5CC[C@]43C)[C@@H]12 [Example 23, 4-((1R,3aS,5aR,5bR,7aR,11aS,11bR,13aR,13bR)-5a,5b,8,8,11a-pentamethyl-3a-((3-(3-oxopiperazin-1-yl)propylamino)methyl)-1-(prop-1-en-2-yl)-2,3,3a,4,5,5a,5b,6,7,7a,8,11,11a,11b,12,13,13a,13b-octadecahydro-1H-cyclopenta[a]chrysen-9-yl)benzoic acid]	< 100
C=C(C)[C@@H]1CC[C@]2(CNCCCN3CCN(C)CC3)CC[C@]3(C)[C@H](CC[C@@H]4[C@@]5(C)CC=C(c6ccc(C(=O)O)cc6)C(C)(C)[C@@H]5CC[C@]43C)[C@@H]12 [Example 56, 4-((1R,3aS,5aR,5bR,7aR,11aS,11bR,13aR,13bR)-5a,5b,8,8,11a-pentamethyl-3a-((3-(4-methylpiperazin-1-yl)propylamino)methyl)-1-(prop-1-en-2-yl)-2,3,3a,4,5,5a,5b,6,7,7a,8,11,11a,11b,12,13,13a,13b-octadecahydro-1H-cyclopenta[a]chrysen-9-yl)benzoic acid]	< 100
C=C(C)[C@@H]1CC[C@]2(CNCCC(=O)N3CCC(F)(F)CC3)CC[C@]3(C)[C@H](CC[C@@H]4[C@@]5(C)CC=C(c6ccc(C(=O)O)cc6)C(C)(C)[C@@H]5CC[C@]43C)[C@@H]12 [Example 117, 4-((1R,3aS,5aR,5bR,7aR,11aS,11bR,13aR,13bR)-3a-((3-(4,4-difluoropiperidin-1-yl)-3-oxopropylamino)methyl)-5a,5b,8,8,11a-pentamethyl-1-(prop-1-en-2-yl)-2,3,3a,4,5,5a,5b,6,7,7a,8,11,11a,11b,12,13,13a,13b-octadecahydro-1H-cyclopenta[a]chrysen-9-yl)benzoic acid]	< 100
C=C(C)[C@@H]1CC[C@]2(CNCCCNC)CC[C@]3(C)[C@H](CC[C@@H]4[C@@]5(C)CC=C(c6ccc(C(=O)O)cc6)C(C)(C)[C@@H]5CC[C@]43C)[C@@H]12 [Example 19, 4-((1R,3aS,5aR,5bR,7aR,11aS,11bR,13aR,13bR)-5a,5b,8,8,11a-pentamethyl-3a-((3-(methylamino)propylamino)methyl)-1-(prop-1-en-2-yl)-2,3,3a,4,5,5a,5b,6,7,7a,8,11,11a,11b,12,13,13a,13b-octadecahydro-1H-cyclopenta[a]chrysen-9-yl)benzoic acid]	< 100
C=C(C)[C@@H]1CC[C@]2(CNCCCN3CCS(=O)(=O)CC3)CC[C@]3(C)[C@H](CC[C@@H]4[C@@]5(C)CC=C(c6ccc(C(=O)NS(=O)(=O)C7CC7)cc6)C(C)(C)[C@@H]5CC[C@]43C)[C@@H]12 [Example 172, benzamide, N-(cyclopropylsulfonyl)-4-((1R,3aS,5aR,5bR,7aR,11aS,11bR,13aR,13bR)-3a-(((3-(1,1-dioxido-4-thiomorpholinyl)propyl)amino)methyl)-1-isopropenyl-5a,5b,8,8,11a-pentamethyl-2,3,3a,4,5,5a,5b,6,7,7a,8,11,11a,11b,12,13,13a,13b-octadecahydro-1H-cyclopenta[a]chrysen-9-yl)benzamide]	< 100
